Test results published in article PMC11249626, “Fluorophore-Labeled Pyrrolones Targeting the Intracellular Allosteric Binding Site of the Chemokine Receptor CCR1” (ACS Pharmacology & Translational Science, 2024).

Key:
[1] = molecular target: vasopressin-2 receptor (V2R); design: method as in PMID 17435162; conditions: cited from earlier work
[2] = molecular target: T1, CCR1 (Homo sapiens, UniProt P32246); assay: Membrane-based NanoBRET competition assay with 12 (2000 nM) and CCR1_Nluc membranes; format: binding; design: Promega pNLF1-C (Nluc) #CCR010TN00; host or cells: HEK293T, transient (PEI); conditions: for Ki: read-out: Ki, CCR1 (converted)
T1 sequence (P32246 1-355): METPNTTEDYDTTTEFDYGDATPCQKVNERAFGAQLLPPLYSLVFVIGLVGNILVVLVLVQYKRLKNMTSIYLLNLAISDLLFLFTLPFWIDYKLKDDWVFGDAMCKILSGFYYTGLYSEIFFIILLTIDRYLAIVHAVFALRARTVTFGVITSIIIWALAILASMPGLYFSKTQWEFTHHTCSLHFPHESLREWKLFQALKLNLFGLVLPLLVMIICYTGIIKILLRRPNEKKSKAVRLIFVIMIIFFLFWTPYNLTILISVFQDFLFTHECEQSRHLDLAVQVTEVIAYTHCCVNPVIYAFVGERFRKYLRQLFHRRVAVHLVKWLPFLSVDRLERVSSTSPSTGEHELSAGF

[3] = molecular target: T2, CCR2 (Homo sapiens, UniProt P41597); assay: Membrane-based NanoBRET saturation binding assay, CCR2_GSSG_Nluc membranes
T2 construct: host or cells: HEK293T, transient
T2 sequence (P41597 1-360 isoform P41597-2): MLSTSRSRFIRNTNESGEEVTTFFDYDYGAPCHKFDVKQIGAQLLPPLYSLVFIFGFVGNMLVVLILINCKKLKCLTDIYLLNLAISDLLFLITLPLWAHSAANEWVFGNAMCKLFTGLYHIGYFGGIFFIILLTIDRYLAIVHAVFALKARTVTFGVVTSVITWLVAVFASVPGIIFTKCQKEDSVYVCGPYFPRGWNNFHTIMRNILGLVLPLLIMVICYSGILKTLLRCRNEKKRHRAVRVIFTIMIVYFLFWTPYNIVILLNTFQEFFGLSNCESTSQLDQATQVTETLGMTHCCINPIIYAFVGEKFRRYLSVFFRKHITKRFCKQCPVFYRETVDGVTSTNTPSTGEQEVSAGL
Method: (§1) Emission spectra of Nluc -labeled CCR1 (CCR1_Nluc) protein: The emission spectra of CCR1_Nluc has already been reported by Toy et al.1 For a confirmation of the reported data with new CCR1_Nluc membrane batches, furimazine (Promega, Mannheim, Germany 1:2000) was added to the membrane preparations (2 µg protein/well). […]
(§2) NanoBRET binding assays: Membrane-based NanoBRET saturation assay: For the establishment of our NanoBRET binding assay, we referred to recently published protocols. […]
(§3) Then, 20 µL of the membrane preparations diluted in assay buffer (3 µg total protein/well) were added and the plates were incubated for 90 min at 37 °C. Subsequently, 5 µL of a furimazine solution (Promega, Mannheim, Germany, final assay dilution: 1:5,000) were added to each well (final assay volume: 35 µL) before measuring luminescence with a CLARIOstar microplate reader using 620/10 nm and 475/30 nm emission filters after 5 min of incubation in the dark. Bioluminescence resonance energy transfer (BRET) was determined as the ratio of acceptor fluorescence and donor luminescence. […] Specific binding signals were calculated as a difference of total and non-specific binding. If required, netBRET values were calculated as the difference between total BRET values and the values obtained in the absence of a fluorescent ligand. […]

[4] = molecular target: T3, CXCR2 (Homo sapiens, UniProt P25025); assay: Membrane-based NanoBRET saturation binding assay, CXCR2_Nluc membranes; conditions: compared with CCR1
T3 construct: host or cells: HEK293T, transient
T3 sequence (P25025 1-360): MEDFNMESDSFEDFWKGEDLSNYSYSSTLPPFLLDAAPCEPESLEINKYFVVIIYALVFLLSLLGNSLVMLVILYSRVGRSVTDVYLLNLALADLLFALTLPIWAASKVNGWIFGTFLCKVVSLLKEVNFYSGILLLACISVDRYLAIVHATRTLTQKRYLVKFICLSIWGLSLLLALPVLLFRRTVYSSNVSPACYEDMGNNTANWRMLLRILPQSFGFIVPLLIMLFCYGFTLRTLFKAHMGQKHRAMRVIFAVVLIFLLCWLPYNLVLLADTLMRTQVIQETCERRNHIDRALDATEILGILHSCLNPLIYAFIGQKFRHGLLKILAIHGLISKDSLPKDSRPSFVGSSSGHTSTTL
Method: as §1, §2, §3

[5] = 12 (2000 nM), CCR1_Nluc membranes

## O=C(C1=C(O)C(=O)N(CCc2ccc(O)cc2)C1c1ccc(F)cc1)c1ccccc1 (racemic) [compound 23]
[1]
  Ki: ~70 nM
[2]; [5]
  Ki: 100 nM
[2]; NanoBRET competition binding assays
  CCR1 over CCR2 binding selectivity: at least 172 fold

## CC(=O)C1=C(O)C(=O)N(c2ccc(Br)cc2F)C1C1CCCCC1 (centres unmarked) [compound 5, reference compound]
[2]; [5]
  pKi ± SEM, CCR1: 7.96 ± 0.10
  Ki: 11.8 nM

## CN(C)c1ccc2c(-c3cc(C(=O)NCCOCCOCc4cn(CCCC(=O)C5=C(O)C(=O)N(c6ccc(Cl)cc6F)C5C5CCCCC5)nn4)ccc3C(=O)[O-])c3ccc(=[N+](C)C)cc-3oc2c1 (centres unmarked) [compound 11]
[3]
  Kd: 1980 ± 270 nM

## CN(C)c1ccc2c(-c3cc(C(=O)NCCOCCOCc4cn(CCCC(=O)C5=C(O)C(=O)N(c6ccc(Br)cc6F)C5C5CCCCC5)nn4)ccc3C(=O)[O-])c3ccc(=[N+](C)C)cc-3oc2c1 (centres unmarked) [compound 12]
[3]
  Kd: 1690 ± 310 nM
[4]
  Binding signal for CXCR2: much weaker
